Where a name gives a salt, the structure may show the parent alone. Read-outs that look alike come from different tables or passages of the source.
Key:
Format in all cases: cell-based, human
cancer cell lines = assay: Cell viability analysis (WST-1) on cancer cell lines; details: drug 10 μM, 72 hours, WST-1; Table 3
[1] = system: LoVo (Colorectal Adenocarcinoma); assay: Cell viability analysis, colon cancer LoVo; details: Homo sapiens, LoVo
[2] = system: PC3 (p53−) (Prostate Adenocarcinoma); assay: Cell viability analysis, prostate cancer PC3; details: Homo sapiens
[3] = system: HL-60 (Acute Promyelocytic Leukemia); assay: Cell viability analysis, leukemia HL-60; details: Homo sapiens
[4] = system: TSGH-8301 (Urinary Bladder Carcinoma); assay: Cell viability analysis, bladder cancer TSGH-8301; details: Homo sapiens
[5] = system: AGS (Gastric Adenocarcinoma); assay: Cell viability analysis, gastric cancer AGS; details: Homo sapiens
[6] = system: HeLa (Cervix Adenocarcinoma); assay: Cell viability analysis, cervical cancer HeLa; details: Homo sapiens, HeLa
[7] = system: HI650 (Lung Adenocarcinoma); assay: Cell viability analysis, lung cancer HI650; details: Homo sapiens
[8] = system: MKN-45 (Gastric Adenocarcinoma); assay: Cell viability analysis, gastric cancer MKN-45; details: Homo sapiens
[9] = system: HepG2 (Hepatocellular Carcinoma); assay: Cell viability analysis, hepatic cancer HepG2; details: Homo sapiens
[10] = system: A375 (Amelanotic Melanoma); assay: Cell viability analysis, skin cancer A375; details: Homo sapiens
[11] = system: MCF7 (Mammary Gland, Adenocarcinoma); assay: Cell viability analysis, breast cancer MCF7; details: Homo sapiens
[12] = system: A549 (Lung Adenocarcinoma); assay: Cell viability analysis, lung cancer A549; details: Homo sapiens
[13] = 72 h, read-out: cell viability (survival rate), LoVo, drug 10 μM, 72 hours, WST-1, OD450 nm
[14] = 72 h, read-out: cell viability (survival rate), PC3, drug 10 μM, 72 hours, WST-1, OD450 nm
[15] = HL-60, 72 h, read-out: cell viability (survival rate), HL-60, drug 10 μM, 72 hours, WST-1, OD450 nm
[16] = 72 h, read-out: cell viability (survival rate), TSGH, drug 10 μM, 72 hours, WST-1, OD450 nm
[17] = 72 h, read-out: cell viability (survival rate), AGS, drug 10 μM, 72 hours, WST-1, OD450 nm
[18] = 72 h, read-out: cell viability (survival rate), HeLa, drug 10 μM, 72 hours, WST-1, OD450 nm
[19] = NCI-H1650, 72 h, read-out: cell viability (survival rate), H1650, drug 10 μM, 72 hours, WST-1, OD450 nm
[20] = MKN-45, 72 h, read-out: cell viability (survival rate), MKN-45, drug 10 μM, 72 hours, WST-1, OD450 nm
[21] = HepG2, 72 h, read-out: cell viability (survival rate), HepG2, drug 10 μM, 72 hours, WST-1, OD450 nm
[22] = A-375, 72 h, read-out: cell viability (survival rate), A375, drug 10 μM, 72 hours, WST-1, OD450 nm
[23] = MCF7, 72 h, read-out: cell viability (survival rate), MCF7, drug 10 μM, 72 hours, WST-1, OD450 nm
[24] = A549, 72 h, read-out: cell viability (survival rate), A549, drug 10 μM, 72 hours, WST-1, OD450 nm
[25] = 72 h, drug 10 μM, 72 hours, WST-1, OD450 nm, read-out: cell viability (survival rate), PC3
[26] = HL-60, 72 h, drug 10 μM, 72 hours, WST-1, OD450 nm, read-out: cell viability (survival rate), HL-60
[27] = 72 h, drug 10 μM, 72 hours, WST-1, OD450 nm, read-out: cell viability (survival rate), TSGH
[28] = 72 h, drug 10 μM, 72 hours, WST-1, OD450 nm, read-out: cell viability (survival rate), AGS
[29] = 72 h, drug 10 μM, 72 hours, WST-1, OD450 nm, read-out: cell viability (survival rate), HeLa
[30] = NCI-H1650, 72 h, drug 10 μM, 72 hours, WST-1, OD450 nm, read-out: cell viability (survival rate), H1650
[31] = MKN-45, 72 h, drug 10 μM, 72 hours, WST-1, OD450 nm, read-out: cell viability (survival rate), MKN-45
[32] = HepG2, 72 h, drug 10 μM, 72 hours, WST-1, OD450 nm, read-out: cell viability (survival rate), HepG2
[33] = A-375, 72 h, drug 10 μM, 72 hours, WST-1, OD450 nm, read-out: cell viability (survival rate), A375
[34] = MCF7, 72 h, drug 10 μM, 72 hours, WST-1, OD450 nm, read-out: cell viability (survival rate), MCF7
[35] = A549, 72 h, drug 10 μM, 72 hours, WST-1, OD450 nm, read-out: cell viability (survival rate), A549

Structure (SMILES)	inhibition effect on different cancer cell lines (cancer cell lines)	viability at 10 µM [1, 13] [%]	viability at 10 µM [2, 14] [%]	viability at 10 µM [3, 15] [%]	viability at 10 µM [4, 16] [%]	viability at 10 µM [5, 17] [%]	viability at 10 µM [6, 18] [%]	viability at 10 µM [7, 19] [%]	viability at 10 µM [8, 20] [%]	viability at 10 µM [9, 21] [%]	viability at 10 µM [10, 22] [%]	viability at 10 µM [11, 23] [%]	viability at 10 µM [12, 24] [%]	viability at 10 µM [2, 25] [%]	viability at 10 µM [3, 26] [%]	viability at 10 µM [4, 27] [%]	viability at 10 µM [5, 28] [%]	viability at 10 µM [6, 29] [%]	viability at 10 µM [7, 30] [%]	viability at 10 µM [8, 31] [%]	also measured
CC(C)NCC(O)c1ccc(O)c(O)c1 (stereo not shown) [Isoprenaline hydrochloride]	significant inhibition effect	80.6	73.6	96.8	81.6	72	91.1	39.9	79.6	81.4	90	73.2	56.1								
CC(=O)N1CCN(c2ccc(OCC3COC(Cn4ccnc4)(c4ccc(Cl)cc4Cl)O3)cc2)CC1 (stereo not shown) [Ketoconazole]	significant inhibition effect	90.3	80.1	88.3	107	65.7	84.3	46.1	77	88.7	49.2	118	75.7								
O=C(C[S+]([O-])Cc1ccco1)NC/C=C\COc1cc(CN2CCCCC2)ccn1 (stereo not shown) [Lafutidine]	significant inhibition effect	48												40.7	95.3	51.9	45.5	46.9	80.1	89.6	viability at 10 µM [9, 32]: 102%; viability at 10 µM [10, 33]: 116%; viability at 10 µM [11, 34]: 33.6%; viability at 10 µM [12, 35]: 21.3%
Cc1c(OCC(F)(F)F)ccnc1C[S+]([O-])c1nc2ccccc2[nH]1 (stereo not shown) [Lansoprazole]	significant inhibition effect	96.1												94.2	78.6	109	71.5	53.6	45.5	74.5	viability at 10 µM [9, 32]: 72.3%; viability at 10 µM [10, 33]: 60.6%; viability at 10 µM [11, 34]: 141%; viability at 10 µM [12, 35]: 84.5%
COc1cccc(N(C)C(=S)Oc2ccc3c(c2)CCCC3)n1 [Liranaftate]	significant inhibition effect																				viability at 10 µM ([1]; drug 10 μM, 72 hours, WST-1, OD450 nm, read-out: cell viability (survival rate), LoVo): 86.6%; viability at 10 µM ([2]; drug 10 μM, 72 hours, WST-1, OD450 nm, read-out: cell viability (survival rate), PC3): 92.7%; viability at 10 µM ([3]; HL-60, drug 10 μM, 72 hours, WST-1, OD450 nm, read-out: cell viability (survival rate), HL-60): 92%; viability at 10 µM ([4]; drug 10 μM, 72 hours, WST-1, OD450 nm, read-out: cell viability (survival rate), TSGH): 108%; viability at 10 µM ([5]; drug 10 μM, 72 hours, WST-1, OD450 nm, read-out: cell viability (survival rate), AGS): 73.6%; viability at 10 µM ([6]; drug 10 μM, 72 hours, WST-1, OD450 nm, read-out: cell viability (survival rate), HeLa): 89%; viability at 10 µM ([7]; NCI-H1650, drug 10 μM, 72 hours, WST-1, OD450 nm, read-out: cell viability (survival rate), H1650): 50.7%; viability at 10 µM ([8]; MKN-45, drug 10 μM, 72 hours, WST-1, OD450 nm, read-out: cell viability (survival rate), MKN-45): 76.7%; viability at 10 µM ([9]; HepG2, drug 10 μM, 72 hours, WST-1, OD450 nm, read-out: cell viability (survival rate), HepG2): 79.8%; viability at 10 µM ([10]; A-375, drug 10 μM, 72 hours, WST-1, OD450 nm, read-out: cell viability (survival rate), A375): 84.5%; viability at 10 µM ([11]; MCF7, drug 10 μM, 72 hours, WST-1, OD450 nm, read-out: cell viability (survival rate), MCF7): 84.8%; viability at 10 µM ([12]; A549, drug 10 μM, 72 hours, WST-1, OD450 nm, read-out: cell viability (survival rate), A549): 67.1%
Cc1cccc(C)c1OCC(=O)N[C@@H](Cc1ccccc1)[C@@H](O)C[C@H](Cc1ccccc1)NC(=O)[C@H](C(C)C)N1CCCNC1=O [Lopinavir (ABT-378), Lopinavir]	significant inhibition effect	85.1	68	92.4	82.2	55.4	116	53.1	74.2	93.1	83.1	77.9	63.8								
CN1CCN(c2c(F)cc3c(=O)c(C(=O)O)cn4c3c2OCN4C)CC1 [Marbofloxacin]	significant inhibition effect	108	78.4	105	91.6	81.2	88.2	80.3	112	95.6	86.8	92.3	83.8								
Cc1cccc(C(C)c2cnc[nH]2)c1C (stereo not shown) [Medetomidine HCl]	significant inhibition effect	79.4	65.6	84.5	104	108	78.4	49.8	37.4	91.9	59.7	72.3	73.7								
CC(=O)O[C@]1(C(C)=O)CC[C@H]2[C@@H]3C[C@H](C)C4=CC(=O)CC[C@]4(C)[C@H]3CC[C@@]21C [Medroxyprogesterone acetate]	significant inhibition effect	65.9												82	51.7	79.4	72.3	70.4	38.6	66.9	viability at 10 µM [9, 32]: 78.6%; viability at 10 µM [10, 33]: 81%; viability at 10 µM [11, 34]: 69.3%; viability at 10 µM [12, 35]: 60.5%
COc1ccc(O)cc1 [Mequinol]	significant inhibition effect	85.2	68	112	97	57.2	87.1	67.5	103	95.6	63.8	74.4	118								

Reference: US10105357B2, “Indication of antibiotic drugs for preparation of cancer inhibition pharmaceutical composition” (LAUNX BIOMEDICAL CO., LTD., priority 2014, dated 2018)
